Measurements taken from US10905680B2, “Methods of treatment for cholestatic and fibrotic diseases” (Genfit, priority 2016, dated 2021).

Legend:
[1] = test system: Normal Human Lung Fibroblasts (NHLF); experiment: TGFβ1-induced expression of α-SMA protein in human lung fibroblasts (ELISA); type: cell-based; conditions: concentration of 1 μM; TGFβ1 1 ng/ml, 48 hours
Protocol: NTZ (A) or TZ (B) was added to serum-deprived lung fibroblasts (NHLF) 1 hour before the activation with TGFβ1 (1 ng/ml). After 48 hours of incubation, the expression of α-SMA was measured by ELISA. The obtained values were transformed into percentage inhibition over TGFβ1 control. Data are presented as mean (triplicates)±standard deviation (SD). Statistical analyses were performed by one-way ANOVA followed by Bonferroni post-hoc tests, using Sigma Plot 11.0 software. [*: p<0.05; **: p<0.01; ***: p<0.001 (comparison versus TGFβ1 1 ng/mL group)].
The Normal Human Lung Fibroblasts (NHLF) (Lonza) were cultured in Fibroblast Basal Medium (FBM) (Lonza cat # CC-3131) that was supplemented with FGM-2 SingleQuots™ Kit (Lonza cat # CC-3132). The complete medium contains 2% fetal bovine serum. For the activation experiments with TGFβ1, the NHLF were plated at a density of 5×10^3 cells per well in 96-well plates. The next day, cell-culture medium was removed, and cells were washed with PBS (Invitrogen cat #14190). NHLF were deprived for 24 hours in serum-free, insulin-free and rhFGF-B-free medium. […]
The level of α-SMA was measured using a Sandwich ELISA. […]

[2] = test system: Normal Human Dermal Fibroblasts (NHDF); experiment: ACTA2 transcripts in TGFβ1-induced normal human dermal fibroblasts (RT-qPCR); type: cell-based; conditions: TGFβ1 10 ng/ml, 24 hours
Protocol: Serum-deprived normal human dermal fibroblasts (NHDF) were preincubated for 1 hour with NTZ (A) or TZ (B) before the activation with TGFβ1 (10 ng/ml). After 24 hours of incubation, the expression of ACTA2 was measured by RT-qPCR. The expression values were then transformed as fold induction over TGFβ1 control. Data are presented as mean (triplicates)±SEM (Standard Error of Mean). Statistical analyses were performed by a student's t-test (for TGFβ-stimulated vs unstimulated conditions); [#: p<0.05; ## p<0.01; ### p<0.001] or by aone-way ANOVA followed by Bonferroni post-hoc tests (for compound-treated samples vs TGFβ1 control). [*: p<0.05; **: p<0.01; ***: p<0.001], using GraphPad Prism 7.04 software.
Normal Human Dermal Fibroblasts (NHDF) (Lonza) were cultured in Fibroblast Basal Medium (FBM) (Lonza cat # CC-3131) supplemented with FGM-2 SingleQuots™ Kit (Lonza cat # CC-3132) and 2% FBS. […]
Quantitative PCR was then carried out using the MyiQ Single-Color Real-Time PCR Detection System (Biorad). […]
For each gene, the standard curves were drawn by selecting the best points (at least three points) in order to have PCR reaction efficiency close to 100% and a correlation coefficient close to 1. Expression levels were determined using the standard curve equation for both the housekeeping gene and the target gene (taking into account the specific PCR efficiency of each target gene).

Q: Which results are given for `O=C(Nc1ncc([N+](=O)[O-])s1)c1ccccc1O` [TZ, 2-hydroxy-N-(5-nitro-2-thiazolyl)benzamide]?
A: antifibrotic effects (α-SMA) in normal human lung fibroblasts [1]: significant antifibrotic effects; antifibrotic effects (ACTA2 transcripts) in TGFβ-activated normal human dermal fibroblasts [2]: significant and dose-dependent antifibrotic effects
